Activity calls are given as the source filed them. No cut-off for these calls is given here.
How the values were obtained:
[1] = Antiproliferative activity against mouse BA/F3 cells after 3 days by MTS assay
K562 = experiment: Antiproliferative activity against human K562 cells after 3 days by MTS assay
[2] = Antiproliferative activity against mouse BA/F3 cells expressing Bcr-Abl T315I mutant after 3 days by MTS assay; conditions: BaF3, 72 h
[3] = target: Proto-oncogene tyrosine-protein kinase Src (Homo sapiens, UniProt P12931)
Description: Inhibition of human Src kinase by TR-FRET assay

[4] = target: Tyrosine-protein kinase ABL1 (Homo sapiens, UniProt P00519)
Description: Inhibition of wild type human Abl kinase by TR-FRET assay

[5] = Oral bioavailability in CD rat at 15 mg/kg; type: ADME, organism-based; conditions: in vivo
[6] = Volume of distribution in CD rat at 5 mg/kg, iv; type: ADME, organism-based; parameters: dose 5 mg/kg, route intravenous; conditions: in vivo
[7] = Half life in CD rat at 5 mg/kg, iv; type: ADME, organism-based; parameters: dose 5 mg/kg, route intravenous; conditions: in vivo
[8] = Cmax in CD rat at 15 mg/kg, po; type: ADME, organism-based; parameters: dose 15 mg/kg, route oral; conditions: in vivo
[9] = AUC (0 to 24 hrs) in CD rat at 15 mg/kg, po; type: ADME, organism-based; parameters: time < 24 hr, dose 15 mg/kg, route oral; conditions: plasma
[10] = Clearance in CD rat at 5 mg/kg, iv; type: ADME, organism-based; parameters: dose 5 mg/kg, route intravenous; conditions: in vivo
[11] = Tmax in CD rat at 15 mg/kg, po; type: ADME, organism-based; parameters: dose 15 mg/kg, route oral; conditions: in vivo
BaF3 [12] = experiment: Antitumor activity against mouse BA/F3 cells expressing wild type Bcr-Abl xenografted in CB17 SCID mouse assessed as median survival time at 75 mg/kg, po administered on day 3 once daily for 19 days relative to control; type: functional, organism-based; parameters: dose 75 mg/kg
BaF3 [13] = experiment: Antitumor activity against mouse BA/F3 cells expressing wild type Bcr-Abl xenografted in CB17 SCID mouse assessed as increase in mouse survival at 75 mg/kg, po administered on day 3 once daily for 19 days relative to control; type: functional, organism-based; parameters: dose 75 mg/kg
[14] = Antiproliferative activity against mouse BA/F3 cells expressing wild type Bcr-Abl after 3 days by MTS assay
[15] = Antiproliferative activity against mouse BA/F3 cells expressing Bcr-Abl E255K mutant after 3 days by MTS assay; conditions: BaF3, 72 h
[16] = Antiproliferative activity against mouse BA/F3 cells expressing Bcr-Abl Y253H mutant after 3 days by MTS assay; conditions: BaF3, 72 h
[17] = Tmax in mouse at 10 mg/kg, po; type: ADME, organism-based; parameters: dose 10 mg/kg, route oral; conditions: in vivo
[18] = Antiproliferative activity against mouse BA/F3 cells expressing Bcr-Abl G250E mutant after 3 days by MTS assay; conditions: BaF3, 72 h
[19] = AUC (0 to 24 hrs) in mouse at 10 mg/kg, po; type: ADME, organism-based; parameters: time < 24 hr, dose 10 mg/kg, route oral; conditions: plasma
[20] = Antiproliferative activity against mouse BA/F3 cells expressing Bcr-Abl Q252H mutant after 3 days by MTS assay; conditions: BaF3, 72 h
[21] = Cmax in mouse at 10 mg/kg, po; type: ADME, organism-based; parameters: dose 10 mg/kg, route oral; conditions: in vivo
[22] = Antiproliferative activity against mouse BA/F3 cells expressing Bcr-Abl L248R mutant after 3 days by MTS assay; conditions: BaF3, 72 h
[23] = Antitumor activity against mouse BA/F3 cells expressing wild type Bcr-Abl xenografted in CB17 SCID mouse assessed as increase in mouse survival at 10 mg/kg, po administered on day 3 once daily for 19 days; type: functional; conditions: BaF3
NIH3T3 [24] = experiment: Antitumor activity against in mouse NIH/3T3 cells expressing Src Y527F mutant xenografted in CD1 nude mouse assessed as complete tumor regression at 100 mg/kg, po administered daily for 21 days; type: functional, organism-based; parameters: dose 100 mg/kg
NIH3T3 [25] = experiment: Antitumor activity against in po dosed mouse NIH/3T3 cells expressing Src Y527F mutant xenografted in CD1 nude mouse assessed as tumor shrinkage administered daily for 21 days; type: functional, organism-based
[26] = Antitumor activity against mouse BA/F3 cells expressing wild type Bcr-Abl xenografted in CB17 SCID mouse assessed as median survival time at 10 mg/kg, po administered on day 3 once daily for 19 days; type: functional, BaF3
[27] = Oral bioavailability in mouse at 10 mg/kg; type: ADME, organism-based; conditions: in vivo

Proto-oncogene tyrosine-protein kinase Src, sequence (P12931 2-536 limits assumed): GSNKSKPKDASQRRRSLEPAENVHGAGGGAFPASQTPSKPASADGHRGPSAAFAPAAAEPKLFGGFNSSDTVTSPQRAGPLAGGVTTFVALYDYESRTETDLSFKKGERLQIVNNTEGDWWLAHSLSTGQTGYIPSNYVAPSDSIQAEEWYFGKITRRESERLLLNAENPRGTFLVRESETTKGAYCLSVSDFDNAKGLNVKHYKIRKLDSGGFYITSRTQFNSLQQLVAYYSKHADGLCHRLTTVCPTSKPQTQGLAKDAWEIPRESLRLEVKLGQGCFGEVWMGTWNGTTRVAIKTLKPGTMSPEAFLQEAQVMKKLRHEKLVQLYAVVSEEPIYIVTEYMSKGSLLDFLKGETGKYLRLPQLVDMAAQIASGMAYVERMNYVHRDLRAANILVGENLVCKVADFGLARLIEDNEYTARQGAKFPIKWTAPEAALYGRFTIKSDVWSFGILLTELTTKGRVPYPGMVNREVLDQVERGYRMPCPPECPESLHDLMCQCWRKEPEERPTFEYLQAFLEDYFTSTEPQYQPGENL
Tyrosine-protein kinase ABL1, sequence (P00519 whole entry): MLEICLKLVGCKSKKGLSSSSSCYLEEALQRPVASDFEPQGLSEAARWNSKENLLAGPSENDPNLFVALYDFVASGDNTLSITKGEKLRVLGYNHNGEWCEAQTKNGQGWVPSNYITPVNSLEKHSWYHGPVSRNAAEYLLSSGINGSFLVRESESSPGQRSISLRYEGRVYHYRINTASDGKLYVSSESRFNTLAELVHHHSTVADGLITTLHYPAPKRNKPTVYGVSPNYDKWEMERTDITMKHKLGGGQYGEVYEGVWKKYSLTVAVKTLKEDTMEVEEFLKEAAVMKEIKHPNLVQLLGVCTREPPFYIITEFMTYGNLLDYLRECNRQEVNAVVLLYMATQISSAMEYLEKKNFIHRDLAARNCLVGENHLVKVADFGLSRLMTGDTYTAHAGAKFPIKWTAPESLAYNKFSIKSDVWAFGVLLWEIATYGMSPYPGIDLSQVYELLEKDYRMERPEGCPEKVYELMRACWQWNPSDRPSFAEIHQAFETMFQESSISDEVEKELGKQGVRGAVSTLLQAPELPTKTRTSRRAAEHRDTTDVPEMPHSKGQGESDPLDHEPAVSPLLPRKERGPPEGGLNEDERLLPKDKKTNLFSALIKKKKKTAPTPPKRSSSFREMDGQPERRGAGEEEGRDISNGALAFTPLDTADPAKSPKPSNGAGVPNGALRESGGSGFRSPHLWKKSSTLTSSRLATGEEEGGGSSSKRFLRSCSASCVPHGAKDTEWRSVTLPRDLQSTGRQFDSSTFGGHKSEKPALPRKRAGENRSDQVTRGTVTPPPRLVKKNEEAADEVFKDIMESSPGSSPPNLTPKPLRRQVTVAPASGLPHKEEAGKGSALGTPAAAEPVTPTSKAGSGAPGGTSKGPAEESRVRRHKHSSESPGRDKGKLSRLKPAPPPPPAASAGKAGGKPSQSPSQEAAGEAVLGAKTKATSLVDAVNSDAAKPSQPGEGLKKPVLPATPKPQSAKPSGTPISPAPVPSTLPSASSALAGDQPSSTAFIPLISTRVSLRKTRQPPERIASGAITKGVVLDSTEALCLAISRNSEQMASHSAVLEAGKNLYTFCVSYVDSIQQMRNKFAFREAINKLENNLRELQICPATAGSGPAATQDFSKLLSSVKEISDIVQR

IC50 (K562; Homo sapiens, K562, 72 h)	Vd [6]	half-life [7]	Cmax [8]	clearance [10]	Tmax [11]	SMILES	IC50 ([1]; Mus musculus, BaF3, 72 h)	also measured
17 nM	–	–	–	–	–	Cc1ccc(C(=O)Nc2cccc(C(F)(F)F)c2)cc1/C=C/n1cnc2c(NC3CC3)ncnc21	4.35 µM	–
5.4 nM	–	–	–	–	–	Cc1ccc(C(=O)Nc2cc(-n3ccnc3)cc(C(F)(F)F)c2)cc1/C=C/n1cnc2c(NC3CC3)ncnc21	7.12 µM	IC50 [2]: 298 nM
–	–	–	–	–	–	CNc1ncnc2c1ncn2CCc1cc(NC(=O)c2cccc(C(F)(F)F)c2)ccc1C	9.68 µM	IC50 [3]: 300 nM; IC50 (K562; k562): Not Active
68 nM	–	–	–	–	–	Cc1ccc(C(=O)Nc2cc(C(F)(F)F)ccc2F)cc1/C=C/n1cnc2c(NC3CC3)ncnc21	7.67 µM	IC50 [4]: 236 nM
22 nM	5.31 L/kg	126 min	100 ng/mL	29.8 mL/min/kg	1 h	Cc1ccc(C(=O)Nc2cccc(C(C)(C)C)c2)cc1/C=C/n1cnc2c(NC3CC3)ncnc21	2.55 µM	bioavailability [5]: 3.5%; AUC(0-t) at 24 h [9]: 297 ng·h/mL
–	–	–	–	–	–	Cc1cn(-c2cc(NC(=O)c3ccc(C)c(Nc4nccc(-c5cccnc5)n4)c3)cc(C(F)(F)F)c2)cn1	–	Activity (BaF3 [12]): Active; Activity (BaF3 [13]): Active
62 nM	–	–	–	–	–	Cc1ccc(NC(=O)c2cccc(C(F)(F)F)c2)cc1/C=C/n1cnc2c(Nc3ccncn3)ncnc21	2.07 µM	–
> 1000 nM	–	–	–	–	–	Cc1ccc(NC(=O)Nc2cccc(C(F)(F)F)c2)cc1/C=C/n1cnc2c(NC3CC3)ncnc21	–	IC50 [3]: 517 nM
63 nM	–	–	–	–	–	Cc1ccc(C(=O)Nc2cccc(C(C)C)c2)cc1/C=C/n1cnc2c(NC3CC3)ncnc21	8.32 µM	–
–	–	–	–	–	–	Cc1ccc(C(=O)Nc2cc(C(F)(F)F)ccn2)cc1/C=C/n1cnc2cncnc21	–	IC50 ([14]; Mus musculus, BaF3, 72 h): 5 nM
17 nM	–	–	–	–	–	Cc1ccc(C(=O)Nc2cc(N3CCOCC3)cc(C(F)(F)F)c2)cc1/C=C/n1cnc2c(NC3CC3)ncnc21	2.52 µM	–
15 nM	4.87 L/kg	222 min	1040 ng/mL	15 mL/min/kg	1 h	Cc1ccc(C(=O)Nc2cc(C(C)(C)C)on2)cc1/C=C/n1cnc2c(NC3CC3)ncnc21	> 10 µM	bioavailability [5]: 45%; AUC(0-t) at 24 h [9]: 7540 ng·h/mL
67 nM	1.6 L/kg	177 min	–	6.33 mL/min/kg	–	CNc1ncnc2c1ncn2/C=C/c1cc(NC(=O)c2cccc(C(F)(F)F)c2)ccc1C	> 10 µM	–
292 nM	–	–	–	–	–	Cc1ccc(C(=O)Nc2ncc(C(C)(C)C)s2)cc1/C=C/n1cnc2c(NC3CC3)ncnc21	7.12 µM	IC50 [4]: 267 nM; IC50 [3]: 310 nM
–	–	–	–	–	–	Cc1cn(-c2cc(NC(=O)c3ccc(C)c(/C=C/n4cnc5cncnc54)c3)cc(C(F)(F)F)c2)cn1	–	IC50 ([14]; Mus musculus, BaF3, 72 h): 7 nM
35 nM	–	–	–	–	–	Cc1ccc(C(=O)Nc2cc(C(C)(C)C)nn2C)cc1/C=C/n1cnc2c(NC3CC3)ncnc21	9.03 µM	IC50 [4]: 146 nM
14 nM	–	–	–	–	–	Cc1ccc(C(=O)Nc2cc(N3CCN(C)CC3)cc(C(F)(F)F)c2)cc1/C=C/n1cnc2c(NC3CC3)ncnc21	0.543 µM	–
0.95 nM	3.54 L/kg	186 min	63 ng/mL	13.2 mL/min/kg	1 h	Cc1ccc(NC(=O)c2cccc(C(F)(F)F)c2)cc1/C=C/n1cnc2c(Nc3ccc(P(C)(C)=O)cc3)ncnc21	7.6 µM	bioavailability [5]: 0.8%; AUC(0-t) at 24 h [9]: 146 ng·h/mL
3.7 nM	9.01 L/kg	402 min	483 ng/mL	16 mL/min/kg	6 h	Cc1ccc(NC(=O)c2cccc(C(F)(F)F)c2)cc1/C=C/n1cnc2c(Nc3ccncc3)ncnc21	0.635 µM	–
4.3 nM	0.78 L/kg	498 min	1750 ng/mL	1 mL/min/kg	2 h	Cc1cn(-c2cc(NC(=O)c3ccc(C)c(/C=C/n4cnc5c(NC6CC6)ncnc54)c3)cc(C(F)(F)F)c2)cn1	6.46 µM	bioavailability [5]: 7%; IC50 [15]: 24 nM; IC50 [16]: 44 nM; Tmax [17]: 1 h; IC50 [18]: 63 nM; AUC(0-t) at 24 h [19]: 6930 ng·h/mL; IC50 [20]: 42 nM; IC50 [2]: 422 nM; AUC(0-t) at 24 h [9]: 17200 ng·h/mL; Cmax [21]: 1020 ng/mL; IC50 [22]: 64 nM
95 nM	1.08 L/kg	240 min	2610 ng/mL	3.17 mL/min/kg	1 h	Cc1ccc(NC(=O)c2cccc(C(F)(F)F)c2)cc1/C=C/n1cnc2c(NC3CC3)ncnc21	7.86 µM	bioavailability [5]: 40%; AUC(0-t) at 24 h [9]: 32200 ng·h/mL
69 nM	–	–	–	–	–	Cc1ccc(C(=O)Nc2ccc(Cl)c(C(F)(F)F)c2)cc1/C=C/n1cnc2c(NC3CC3)ncnc21	2.41 µM	–
–	–	–	–	–	–	Cc1ccc(NC(=O)c2cccc(C(F)(F)F)c2)cc1/C=C/n1cnc2c(NCCCN(C)C)ncnc21	–	IC50 ([1]; baf3): Not Active; IC50 [4]: 157 nM; IC50 [3]: 159 nM; IC50 ([14]; baf3): Not Active; IC50 (K562; k562): Not Active
2.7 nM	1.7 L/kg	144 min	387 ng/mL	8.17 mL/min/kg	2 h	Cc1ccc(NC(=O)c2cccc(C(F)(F)F)c2)cc1/C=C/n1cnc2c(Nc3cccnc3)ncnc21	> 10 µM	bioavailability [5]: 11%; AUC(0-t) at 24 h [9]: 3310 ng·h/mL; IC50 ([14]; baf3): Not Active
181 nM	–	–	–	–	–	Cc1ccc(NC(=O)c2cccc(C(F)(F)F)c2)cc1/C=C/n1cnc2c(Nc3ccccn3)ncnc21	6.26 µM	IC50 [4]: 243 nM; IC50 [3]: 201 nM

SMILES	IC50 (K562; Homo sapiens, K562, 72 h)	Vd [6]	half-life [7]	Cmax [8]	clearance [10]	Tmax [11]	IC50 ([1]; Mus musculus, BaF3, 72 h)	also measured
Cc1ccc(C(=O)Nc2cc(C(F)(F)F)ccn2)cc1/C=C/n1cnc2c(NC3CC3)ncnc21	6.1 nM	0.34 L/kg	342 min	23500 ng/mL	0.667 mL/min/kg	2 h	4.89 µM	bioavailability [5]: 116%; survival at 10 mg/kg [23]: 75%; Activity (NIH3T3 [24]): Active; Activity (NIH3T3 [25]): Dose-dependent effect; Tmax [17]: 2 h; MST [26]: 35 days; AUC(0-t) at 24 h [19]: 21200 ng·h/mL; IC50 [2]: 2750 nM; AUC(0-t) at 24 h [9]: 428000 ng·h/mL; bioavailability [27]: 100%; Cmax [21]: 3100 ng/mL
